Square brackets hold non-standard residues; d marks the D form. Peptide text beside a SMILES is read from it. MeBmt = C/C=C/C[C@@H](C)[C@@H](O)[C@H](NC)C(=O)O; NMeI = CC[C@H](C)[C@H](NC)C(=O)O; NMeL = CN[C@@H](CC(C)C)C(=O)O; NMeV = CN[C@H](C(=O)O)C(C)C; dHiv = CC(C)[C@@H](O)C(=O)O; dNMeA = CN[C@H](C)C(=O)O; Abu = CC[C@H](N)C(=O)O; Sar = CNCC(=O)O

This data set in a line: Cytostatic/cytotoxic effect, MTT (MTS) assay in Huh 9-13 cells. It is filed as cell-based. To be noted: metabolic activity reduced to 50% of untreated cells. From the text: Assays used Huh 9-13 containing the hepatitis C virus genotype 1b Con1 replicon (Lohmann et al. 2001. J. Virol. 75:1437-1449; and Lohmann et al. 1999. Science. 285:110-113). Cells were sub-cultured in cell growth medium DMEM supplemented with 10% FCS, 1% non-essential amino acids, 1% penicillin/streptomycin and 2% Geneticin (Invitrogen) at a ratio of 1:4-1:5 and grown for 3-4 days in 75 cm^2 tissue culture flasks (Techno Plastic Products), were harvested and seeded in assay medium (DMEM, 10% FCS, 1% non-essential amino acids, 1% penicillin/streptomycin) at a density of 5 000 cells/well (100 μl/well) in 96-well tissue culture microtiter plates (Falcon, Beckton Dickinson) for evaluation of cytostatic/cytotoxic and antiviral effect. The microtiter plates were incubated overnight (37° C., 5% CO2, 95-99% relative humidity), yielding a non-confluent cell monolayer.
Cell density and cytostatic effects were estimated in parallel cultures in regular 96-well plates (Beckton-Dickinson) using the MTT assay (CellTiter 96 AQueous Non-Radioactive Cell Proliferation Assay, Promega). In this assay, 3-(4,5-dimethyl-thiazol-2-yl)-5-(3-carboxymethoxy-phenyl)-2-(4-sulfophenyl)-2H-tetrazolium (MTS) is bioreduced to a formazan that is quantified at 498 nm in a plate reader. Formazan production is directly correlated with number of life cells. Absorbance was measured at a wavelength of 498 nm (Safire^2, Tecan) and optical densities (OD values) were converted to percentage of untreated controls.
The compounds were dissolved in DMSO at a concentration of 4 mmole/L. Stock solutions were immediately used to set up the experiments. The compounds were tested at 24 different concentrations ranging from 0.0001 μmole/L to 100 μmole/L. The highest concentration of DMSO in the assay was determined to be 2.5% (at 100 μM final concentration of the compound). During the assay setup, the DMSO percentage decreased concomitantly with decrease in concentration of the compound.
The EC50 (value derived from the dose-response curve) represents the concentration at which 50% inhibition of viral replication is observed. The CC50 (value derived from the dose-response curve) represents the concentration at which the metabolic activity of the cells is reduced to 50% of the metabolic activity of untreated cells.
Results from these experiments permitted calculation of EC50±SD (standard deviation or Std. Dev.), which is the effective concentration required to inhibit HCV replicon replication by 50%, and of CC50±SD (whenever possible), which is the concentration required that inhibits the proliferation of exponentially growing cells by 50%. EC50 and CC50±SD values were calculated respectively as the median of all the EC50, or CC50 values derived from the 3 individual dose-response curves. The selectivity index (SI), indicative of the therapeutic window of the compound was calculated as the ratio between CC50 and EC50.
In turn, `C/C=C/C[C@@H](C)[C@@H](O)[C@H]1C(=O)N[C@@H](CC)C(=O)N(C)[C@H](C)C(=O)N(C)[C@@H](C(C)C)C(=O)N[C@@H]([C@@H](C)CC)C(=O)N(C)[C@@H](CC(C)C)C(=O)NCC(=O)O[C@H](C(C)C)C(=O)N(C)[C@@H](CC(C)C)C(=O)N[C@@H](CC(C)C)C(=O)N(C)[C@@H](C(C)C)C(=O)N1C` [(Ig), cyclo-(MeBmt-Abu-D-MeAla-MeVal-Ile-MeLeu-Gly-D-Hiv-MeLeu-Leu-MeVal)] (cyclo([Abu][dNMeA][NMeV]I[NMeL]G[dHiv][NMeL]L[NMeV][MeBmt])) yielded a cytotoxic concentration (CC50) of 67 µM. In the case of `C/C=C/C[C@@H](C)[C@@H](O)[C@H]1C(=O)N[C@@H](CC)C(=O)N(C)[C@H](C)C(=O)N(C)[C@@H]([C@@H](C)CC)C(=O)N[C@@H](CC(C)C)C(=O)N(C)[C@@H](CC(C)C)C(=O)NCC(=O)O[C@H](C(C)C)C(=O)N(C)[C@@H](CC(C)C)C(=O)N[C@@H](CC(C)C)C(=O)N(C)[C@@H](C(C)C)C(=O)N1C` [(Ii), cyclo-(MeBmt-Abu-D-MeAla-MeIle-Leu-MeLeu-Gly-D-Hiv-MeLeu-Leu-MeVal)] (cyclo([Abu][dNMeA][NMeI]L[NMeL]G[dHiv][NMeL]L[NMeV][MeBmt])) it was 25.4 µM; in that of `C/C=C/C[C@@H](C)[C@@H](O)[C@H]1C(=O)N[C@@H](C(C)C)C(=O)N(C)[C@H](C)C(=O)N(C)[C@@H](C(C)C)C(=O)N[C@@H](C(C)C)C(=O)N(C)CC(=O)NCC(=O)O[C@H](C(C)C)C(=O)N(C)[C@@H](CC(C)C)C(=O)N[C@@H](CC(C)C)C(=O)N(C)[C@@H](C(C)C)C(=O)N1C` [(Ik), cyclo-(MeBmt-Val-D-MeAla-MeVal-Val-Sar-Gly-D-Hiv-MeLeu-Leu-MeVal)] (cyclo(G[dHiv][NMeL]L[NMeV][MeBmt]V[dNMeA][NMeV]V[Sar])), 9.8 µM.

The record behind these values is patent US8501683B2, “Cycloundecadepsipeptide compounds and use of said compounds as a medicament” (priority 2008, dated 2013).
